Laboratory results reported in patent publication US20040097594A1 (priority 1998, published 2004).

Assays:
HIV-1 protease = HIV-1 protease (Human immunodeficiency virus type 1 group M subtype B, UniProt P04585); assay: biochemical; conditions: HIV-1 protease; upper line of each compound's entry; read-out: Ki (enzyme)
HIV-1 (strain IIIB) = assay: microbe, parasite or virus in culture; assay type: cell-based; conditions: Human immunodeficiency virus 1, 120 h; MT4 cells infected with HIV-1 strain IIIB, 5 days; lower line of each compound's entry; read-out: IC50 (MT-4 cells)

Row | Structure (SMILES) | Ki (HIV-1 protease) | IC50 (HIV-1 (strain IIIB))
1 | NCCNc1cccc(S(=O)(=O)N(CC(O)C(Cc2ccccc2)NC(=O)OC2COC3OCCC23)OC2CCCC2)c1 [Compound 83, (3R,3aS,6aR)hexahydrofuro[2,3-b]furan-3-yl N-(1S,2R)-3-[(3[(2-aminoethyl)amino]phenylsulfonyl)(cyclopentyloxy)amino]-1-benzyl-2-hydroxypropylcarbamate and (3S,3aR,6aS)hexahydrofuro[2,3-b]furan-3-yl N-(1S,2R)-3-[(3[(2-aminoethyl)amino]phenylsulfonyl)(cyclopentyloxy)amino]-1-benzyl-2-hydroxypropylcarbamate] | < 1 nM | 100 to 500 nM
2 | N#CCNc1cccc(S(=O)(=O)N(CC(O)C(Cc2ccccc2)NC(=O)OC2COC3OCCC23)OC2CCCC2)c1 [Compound 86, (3R,3aS,6aR)hexahydrofuro[2,3-b]furan-3-yl N-(1S,2R)-1-benzyl-3-[(3-[(cyanomethyl)amino]phenylsulfonyl)(cyclopentyloxy)amino]-2-hydroxypropylcarbamate and (3S,3aR,6aS)hexahydrofuro[2,3-b]furan-3-yl N-(1S,2R)-1-benzyl-3-[(3-[(cyanomethyl)amino]phenylsulfonyl)(cyclopentyloxy)amino]-2-hydroxypropylcarbamate] | < 1 nM | ≤ 100 nM
3 | O=C(NC(Cc1ccccc1)C(O)CN(OC1CCCC1)S(=O)(=O)c1cccc(NCC(=O)N2CCOCC2)c1)OC1COC2OCCC12 [Compound 87, (3R,3aS,6aR)hexahydrofuro[2,3-b]furan-3-yl N-(1S,2R)-1-benzyl-3-[(cyclopentyloxy)(3-[(2-morpholino-2-oxoethyl)amino]phenylsulfonyl)amino]-2-hydroxypropylcarbamate and (3S,3aR,6aS)hexahydrofuro[2,3-b]furan-3-yl N-(1S,2R)-1-benzyl-3-[(cyclopentyloxy)(3-[(2-morpholino-2-oxoethyl)amino]phenylsulfonyl)amino]-2-hydroxypropylcarbamate] | < 1 nM | ≤ 100 nM
4 | O=C(N[C@@H](Cc1ccccc1)[C@H](O)CN(OC1CCCC1)S(=O)(=O)c1ccc2nccnc2c1)O[C@H]1CO[C@H]2OCC[C@H]21 [Compound 90] | < 1 nM | ≤ 100 nM
5 | O=C(N[C@@H](Cc1ccccc1)[C@H](O)CN(OC1CCCC1)S(=O)(=O)c1cccc(OCCO)c1)O[C@H]1CO[C@H]2OCC[C@H]21 [Compound 97, (3R,3aS,6aR)hexahydrofuro[2,3-b]furan-3-yl N-[(1S,2R)-1-benzyl-3-((cyclopentyloxy) [3-(2-hydroxyethoxy)phenyl]sulfonylamino)-2-hydroxypropyl]carbamate] | < 1 nM | ≤ 100 nM
6 | Nc1cccc(S(=O)(=O)N(C[C@@H](OP(=O)(O)O)[C@H](Cc2ccccc2)NC(=O)O[C@H]2CO[C@H]3OCC[C@H]32)OC2CCCC2)c1 [Compound 100, Phosphate ester of (3R,3aS,6aR)hexahydrofuro[2,3-b]furan-3-yl N-(1S,2R)-3-[[(3-aminophenyl)sulfonyl](cyclopentyloxy)amino]-1-benzyl-2-hydroxypropylcarbamate] | 10 to 100 nM | 100 to 500 nM
7 | COC(=O)Nc1n[nH]c2ccc(S(=O)(=O)N(C[C@@H](O)[C@H](Cc3ccccc3)NC(=O)OC3COCOC3)OC3CCCC3)cc12 [Compound 104, 1,3-Dioxan-5-yl-N-(1S,2R)-1-benzyl-3-[(cyclopentyloxy)(3-(carbomethoxyamino)-indazole-5-ylsulfonyl)amino]-2-hydroxypropylcarbamate] | < 1 nM | ≤ 100 nM
8 | CC(C)(C)OC(=O)N[C@@H](Cc1ccccc1)[C@H](O)CN(OC1CCCC1)S(=O)(=O)c1ccc2[nH]c(NC(=O)CCCl)nc2c1 [Compound 105, Tert-butyl N-(1S,2R)-1-benzyl-3-[(cyclopentyloxy)(2-[(3-chloropropionyl)amino]-1H-benzimidazol-5-ylsulfonyl)amino]-2-hydroxypropylcarbamate] | < 1 nM | ≤ 100 nM
9 | CC(C)(C)OC(=O)N[C@@H](Cc1ccccc1)[C@H](O)CN(OC1CCCC1)S(=O)(=O)c1ccc2nc(N)[nH]c2c1 [Compound 106, Tert-butyl N-(1S,2R)-1-benzyl-3-[(cyclopentyloxy)(2-amino-1H-benzimidazol-5-ylsulfonyl)amino]-2-hydroxypropylcarbamate] | < 1 nM | 100 to 500 nM
10 | Nc1n[nH]c2ccc(S(=O)(=O)N(C[C@@H](O)[C@H](Cc3ccccc3)NC(=O)O[C@H]3CO[C@H]4OCC[C@H]43)OC3CCCC3)cc12 [Compound 108, (3R,3aS,6aR)Hexahydrofuro[2,3-b]furan-3-yl N-(1S,2R)-1-benzyl-3-[(cyclopentyloxy) (3-aminoindazole-5-ylsulfonyl)amino]-2-hydroxypropylcarbamate] | 10 to 100 nM | > 500 nM
11 | COCOc1ccc(S(=O)(=O)N(C[C@@H](O)[C@H](Cc2ccccc2)NC(=O)OC(C)(C)C)OC2CCCC2)cc1 [Compound 109, tert-butyl N-((1S,2R)-1-benzyl-3-(cyclopentyloxy)[(4-methoxymethoxyphenyl)sulfonyl]amino-2-hydroxypropyl)carbamate] | 10 to 100 nM | ≥ 100 nM
12 | CC(C)(C)ON(C[C@@H](O)[C@H](Cc1ccccc1)NC(=O)O[C@H]1CCOC1)S(=O)(=O)c1ccccc1 [Compound 111, (3S) Tetrahydro-3-furanyl-N-(1S,2R)-1-benzyl-3-(tertbutyloxy)[(phenyl)sulfonyl]amino-2-hydroxypropylcarbamate] | 1 to 10 nM | > 1000 nM
13 | CC(=O)Nc1nc2ccc(S(=O)(=O)N(C[C@@H](O)[C@H](Cc3ccccc3)NC(=O)OC3COCOC3)OC3CCCC3)cc2s1 [Compound 114] | < 1 nM | ≤ 100 nM
14 | COc1ccc(S(=O)(=O)N(C[C@@H](O)[C@H](Cc2ccccc2)NC(=O)C(C)CS(C)(=O)=O)OC2CCCC2)cc1 (stereo partly drawn) [Compound 115, 1N-(3-Methylsulfonylisobutyryl)-(1S,2R)-1-benzyl-3-(cyclopentyloxy)[4-methoxyphenylsulfonyl]amino-2-hydroxypropylamine] | > 100 nM | 500 to 1000 nM
15 | COc1ccc(S(=O)(=O)N(C[C@@H](O)[C@H](Cc2ccccc2)NC(=O)O[C@H]2CO[C@@H]3OCC[C@@H]32)OC2CCCC2)cc1 [Compound 116] | > 100 nM | 500 to 1000 nM
16 | COc1ccc(S(=O)(=O)N(C[C@@H](O)[C@H](Cc2ccccc2)NC(=O)O[C@@H]2CO[C@H]3OCC[C@H]32)OC2CCCC2)cc1 [Compound 117] | > 100 nM | 500 to 1000 nM
17 | CC(C)ON(CC(O)C(Cc1ccccc1)NC(=O)OC1COC2OCCC12)S(=O)(=O)c1ccc2nc(NS(C)(=O)=O)n(Cc3ccccc3)c2c1 (stereo not shown) [Compound 118] | > 100 nM | 500 to 1000 nM
18 | CNc1cccc(S(=O)(=O)N(C[C@@H](OP(=O)(O)O)[C@H](Cc2ccccc2)NC(=O)O[C@H]2CO[C@H]3OCC[C@H]32)OC2CCCC2)c1 [Compound 119, Phosphate ester of (3R,3aS,6aR)hexahydrofuro[2,3-b]furan-3-yl N-(1S,2R)-3-[[(3-N-methylaminophenyl)sulfonyl](cyclopentyloxy)amino]-1-benzyl-2-hydroxypropylcarbamate] | > 100 nM | > 1000 nM
19 | CNC(=O)NCCNc1cccc(S(=O)(=O)N(CC(O)C(Cc2ccccc2)NC(=O)OC2COC3OCCC23)OC2CCCC2)c1 [Compound 121, (3R,3aS,6aR)hexahydrofuro[2,3-b]furan-3-yl N-(1S,2R)-1-benzyl-3-[(cyclopentyloxy)(3-[(2-[(methylamino)carbonyl]aminoethyl)amino]phenylsulfonyl)amino]-2-hydroxypropylcarbamate and (3S,3aR,6aS)hexahydrofuro[2,3-b]furan-3-yl N-(1S,2R)-1-benzyl-3-[(cyclopentyloxy)(3-[(2-[(methylamino)carbonyl]aminoethyl)amino]phenylsulfonyl)amino]-2-hydroxypropylcarbamate] | < 1 nM | 100 to 500 nM
20 | COc1cccc(S(=O)(=O)N(C[C@@H](O)[C@H](Cc2ccccc2)NC(=O)O[C@H]2CO[C@H]3OCC[C@H]32)OC2CCCC2)c1 [Compound 123, (3R,3aS,6aR)hexahydrofuro[2,3-b]furan-3-yl N-[(1S,2R)-1-benzyl-3-((cyclopentyloxy)[(3-methoxyphenyl)sulfonyl]amino)-2-hydroxypropyl]carbamate] | < 1 nM | ≤ 100 nM
21 | Nc1nc2ccc(S(=O)(=O)N(C[C@@H](O)[C@H](Cc3ccccc3)NC(=O)OC3COCOC3)OC3CCCC3)cc2s1 [Compound 125] | < 1 nM | ≤ 100 nM
22 | CC(C)ON(C[C@@H](O)[C@H](Cc1ccccc1)NC(=O)O[C@H]1CO[C@H]2OCC[C@H]21)S(=O)(=O)c1cccc(N(C)C(=O)OC(C)(C)C)c1 [Compound 126] | > 100 nM | > 1000 nM
23 | CNc1cccc(S(=O)(=O)N(C[C@@H](O)[C@H](Cc2ccccc2)NC(=O)O[C@H]2CO[C@H]3OCC[C@H]32)OC(C)C)c1 [Compound 127] | < 1 nM | ≤ 100 nM
24 | CN(C(=O)OC(C)(C)C)c1cccc(S(=O)(=O)N(C[C@@H](O)[C@H](Cc2ccccc2)NC(=O)O[C@H]2CO[C@H]3OCC[C@H]32)OC2CCCC2)c1 [Compound 128] | > 100 nM | > 1000 nM
25 | COC(=O)Nc1nc2cc(S(=O)(=O)N(C[C@@H](O)[C@H](Cc3ccccc3)NC(=O)OC(C)(C)C)OC3CCCC3)ccc2[nH]1 [Compound 130, tert-Butyl-N-((1S,2R)-1-benzyl-3-(cyclopentyloxy)(2-[(methoxycarbonyl)amino]benzimidazol-5-ylsulfonyl)amino-2-hydroxypropyl)carbamate] | < 1 nM | ≤ 100 nM
26 | CC(C)(C)OC(=O)N[C@@H](Cc1ccccc1)[C@H](O)CN(OC1CCCC1)S(=O)(=O)c1ccc2[nH]c(=O)[nH]c2c1 [Compound 131, tert-Butyl-N-((1S,2R)-1-benzyl-3-(cyclopentyloxy)(2-oxybenzimidazol-5-ylsulfonyl)amino-2-hydroxypropyl)carbamate] | < 1 nM | ≤ 100 nM
